The record followed here is patent US20250066369A1, “BICYCLIC PHTHALAZIN-1(2H)-ONE DERIVATIVES AND RELATED USES” (NodThera Limited, priority 2022, published 2025).

For orientation: IC50 means the concentration that inhibits the measured activity by half. A high value points to a need for much substance.

Some results are limits rather than exact numbers.

The first assay concerns IL-1β release upon NLRP3 activation in peripheral blood mononuclear cells (PBMC). Description: PBMC IC50 determination assay: inhibition of IL-1β release upon NLRP3 activation. As to conditions: PBMC primed with LPS 3 h, compound 30 min, stimulated with ATP (5 mM) or nigericin (10 μM) 1 h; IL-1β by ELISA (Protocol A) or HTRF (Protocol B). Format: cell-based. Summed up:
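Human PBMC from buffy coats were primed 3 h with LPS (1 μg/mL in Protocol B), given compound for 30 min, then stimulated 1 h with ATP (5 mM) or nigericin (10 μM; Protocol A only). Released IL-1β was quantified by ELISA at 450 nm (Protocol A) or HTRF at […] (Protocol B).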
Background: An ELISA detects its analyte on a solid surface through an enzyme-linked reagent.
Consider `CC(C)c1nn(C2(C(=O)Nc3ncccn3)CC2)c(=O)c2cn(C3CC3)nc12` [Compound 66, 1-(2-Cyclopropyl-7-isopropyl-4-oxo-2,4-dihydro-5H-pyrazolo[3,4-d]pyridazin-5-yl)-N-(pyrimidin-2-yl)cyclopropane-1-carboxamide], for which the IC50 lay within 3000 to 10000 nM.
The same measure, in the same setting: to `CC(C)c1nn(CC(=O)Nc2ncc(F)cn2)c(=O)c2cn(C3CC3)nc12` [Compound 17, 2-(2-Cyclopropyl-7-isopropyl-4-oxo-pyrazolo[3,4-d]pyridazin-5-yl)-N-(5-fluoropyrimidin-2-yl) acetamide] belongs 100 to 1000 nM.

Staying with this assay, now noted: PBMC, PBMC primed with LPS 3 h, compound 30 min, stimulated with ATP (5 mM) or nigericin (10 μM) 1 h; IL-1β by ELISA (Protocol A) or HTRF (Protocol B).
Turning to `CC(C)c1nn(CC(=O)N[C@@H]2CCCN(C3CC3)C2)c(=O)c2nn(C)cc12` [Compound 9, N-[(3R)-1-Cyclopropyl-3-piperidyl]-2-(4-isopropyl-2-methyl-7-oxo-pyrazolo[3,4-d]pyridazin-6-yl)acetamide], the IC50 was in the range of 10000 to 50000 nM.
Take `Cc1nn(CC(=O)Nc2ncccn2)c(=O)c2sc(C3CC3)cc12` [Compound 88, 2-{2-Cyclopropyl-4-methyl-7-oxo-6H,7H-thieno[2,3-d]pyridazin-6-yl}-N-(pyrimidin-2-yl)acetamide]: the IC50 fell in the range of 100 to 1000 nM.
The same measure, in the same setting: to `Cc1cc2c(C)nn(CC(=O)Nc3ncccn3)c(=O)c2s1` [Compound 117, 2-{2,4-Dimethyl-7-oxo-6H,7H-thieno[2,3-d]pyridazin-6-yl}-N-(pyrimidin-2-yl)acetamide] belongs 1000 to 3000 nM.
Still for that read-out and setting: for `CNc1cc2c(C)nn(CC(=O)Nc3ncccn3)c(=O)c2s1` [Compound 118, 2-[4-methyl-2-(methylamino)-7-oxo-6H,7H-thieno[2,3-d]pyridazin-6-yl]-N-(pyrimidin-2-yl)acetamide] the value was 1000 to 3000 nM; for `CC(C)c1nn(CC(=O)Nc2ccc3nncn3n2)c(=O)c2cc(C3CC3)oc12` [Compound 105, 2-[2-Cyclopropyl-4-oxo-7-(propan-2-yl)-4H,5H-furo[2,3-d]pyridazin-5-yl]-N-{[1,2,4]triazolo[4,3-b]pyridazin-6-yl}acetamide], 100 to 1000 nM.
Still for that read-out and setting: for `CCc1cc2c(C(C)C)nn(CC(=O)Nc3ncc(F)cn3)c(=O)c2s1` [Compound 24, 2-(2-Ethyl-4-isopropyl-7-oxo-thieno[2,3-d]pyridazin-6-yl)-N-(5-fluoropyrimidin-2-yl) acetamide] the value was not above 100 nM.
`Cc1nn(CC(=O)N[C@@H]2CCCN(C)C2)c(=O)c2ccc(C3CC3)nc12` [Compound 46]: the IC50 fell in the range of 1000 to 3000 nM.
The same measure, in the same setting: to `CCn1cc2c(=O)n(CC(=O)Nc3ncc(F)cn3)nc(C(C)C)c2n1` [Compound 8, 2-(2-Ethyl-7-isopropyl-4-oxo-pyrazolo[3,4-d]pyridazin-5-yl)-N-(5-fluoropyrimidin-2-yl)acetamide] belongs 100 to 1000 nM.
Same read-out and setting: for `CC(C)c1nn(CC(=O)N[C@@H]2CCCN(C3CCC3)C2)c(=O)c2sc(C#N)cc12` [Compound 30, 2-(2-Cyano-4-isopropyl-7-oxo-thieno[2,3-d]pyridazin-6-yl)-N-[(3R)-1-cyclobutyl-3-piperidyl]acetamide] the value was 3000 to 10000 nM.
The same measure, in the same setting: for `Cc1nn(CC(=O)N[C@H]2C[C@@](C)(O)C2)c(=O)c2cc(C3CC3)oc12` [Compound 85, 2-{2-Cyclopropyl-7-methyl-4-oxo-4H,5H-furo[2,3-d]pyridazin-5-yl}-N-[cis-3-hydroxy-3-methylcyclobutyl]acetamide] the value was 1000 to 3000 nM.
`CC(C)c1nn(CC(=O)Nc2ncco2)c(=O)c2sc(C3CC3)cc12` [Compound 76, 2-(2-Cyclopropyl-4-isopropyl-7-oxothieno[2,3-d]pyridazin-6(7H)-yl)-N-(oxazol-2-yl)acetamide] registered an IC50 of 100 to 1000 nM.
On the same count and under the same terms, for `CCc1nn(CC(=O)NC2CC3(COC3)C2)c(=O)c2cn(CC)nc12` [Compound 22, 2-(2,7-Diethyl-4-oxo-pyrazolo[3,4-d]pyridazin-5-yl)-N-(2-oxaspiro[3.3]heptan-6-yl)acetamide] the value was 10000 to 50000 nM.
On the same count and under the same terms, for `CC(C)c1nn(CC(=O)Nc2ncccn2)c(=O)c2cn(C3CC3)nc12` [Compound 65, 2-(2-Cyclopropyl-7-isopropyl-4-oxo-2,4-dihydro-5H-pyrazolo[3,4-d]pyridazin-5-yl)-N-(pyrimidin-2-yl)acetamide] the value was 100 to 1000 nM.
